According to PubChem BioAssay (NCI):
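Method: 48-hour compound exposure of cells in 96-well plates, five concentrations, linear interpolation of endpoints. GI50: concentration for 50% inhibition of growth. TGI: total growth inhibition.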

Assays:
Test in all cases: NCI tumour cell line growth inhibition, 48 h
M14 melanoma = test system: M14 melanoma
HL-60(TB) leukemia = test system: HL-60(TB) leukemia
786-0 renal = test system: 786-0 renal
IGROV1 ovarian = test system: IGROV1 ovarian
UO-31 renal = test system: UO-31 renal
UACC-257 melanoma = test system: UACC-257 melanoma
NCI-H460 lung = test system: NCI-H460 lung
SK-MEL-28 melanoma = test system: SK-MEL-28 melanoma
COLO 205 colon = test system: COLO 205 colon
RPMI-8226 leukemia = test system: RPMI-8226 leukemia

| SMILES | TGI (M14 melanoma) [µM] | TGI (HL-60(TB) leukemia) [µM] | TGI (786-0 renal) [µM] | TGI (IGROV1 ovarian) [µM] | TGI (UO-31 renal) [µM] | TGI (UACC-257 melanoma) [µM] | TGI (NCI-H460 lung) [µM] | TGI (SK-MEL-28 melanoma) [µM] | TGI (COLO 205 colon) [µM] | TGI (RPMI-8226 leukemia) [µM] | GI50 (M14 melanoma) [µM] | GI50 (HL-60(TB) leukemia) [nM] | GI50 (786-0 renal) [µM] | GI50 (IGROV1 ovarian) [µM] | GI50 (UO-31 renal) [nM] | GI50 (UACC-257 melanoma) [µM] | GI50 (NCI-H460 lung) [nM] | GI50 (SK-MEL-28 melanoma) [µM] | GI50 (COLO 205 colon) [µM] | GI50 (RPMI-8226 leukemia) [µM] |
| --- | --- | --- | --- | --- | --- | --- | --- | --- | --- | --- | --- | --- | --- | --- | --- | --- | --- | --- | --- | --- |
| Nc1nc(CCC(=O)Nc2cccc(C(F)(F)F)c2)cc(-c2ccc3ccccc3c2)n1 | > 100 | > 100 | > 100 | > 100 | > 100 | > 100 | > 100 | > 100 | > 100 | > 100 | – | – | – | – | – | – | – | – | – | – |
| N#CC(NNC(=O)c1ccccc1O)c1cccc(O)c1 (stereo not given) | > 100 | 73.9 | > 100 | > 100 | 5.63 | > 100 | > 100 | > 100 | > 100 | > 100 | – | – | – | – | – | – | – | – | – | – |
| O=C1Nc2cccc3cc(NCC(O)CCl)cc1c23 (stereo not given) | > 100 | > 100 | > 100 | > 100 | 92.1 | > 100 | > 100 | > 100 | > 100 | > 100 | – | – | – | – | – | – | – | – | – | – |
| C=C(C=O)CCCC(C)[C@@H]1CCC23CC12CCC1[C@@]2(C)CCC(OC(C)=O)C(C)(C)C2CC(OC2OC(COC(C)=O)C(O)C(O)C2O)[C@]13C (stereo not given in full) | 4.57 | 2.04 | 13.2 | 7.9 | 11 | 11.6 | 16.1 | 1.77 | 14.4 | 3.01 | – | – | – | – | – | – | – | – | – | – |
| COC(=O)CCC1=C(C)/C(=C/c2[nH]c(-c3ccc[nH]3)cc2OC)N=C1C | 1.8 | 2.38 | 3.72 | 12 | 2.92 | 3.97 | 4.88 | 3.55 | 1.72 | 1.38 | 0.42 | 414 | 0.653 | 1.4 | 556 | 0.871 | 441 | 0.869 | 0.618 | 0.272 |
| CC1(C)C2CCC3(C2)CS(=O)(=O)N2OC231 (stereo not given) | 30 | 43.3 | 31.2 | 43.4 | 31.3 | 33.1 | 37.1 | 44.7 | 32.9 | > 100 | – | – | – | – | – | – | – | – | – | – |
| O=c1ccc(=O)c2c(=O)c3ccccc3c(=O)c1=2 | > 100 | 70.9 | > 100 | > 100 | > 100 | 90.4 | > 100 | > 100 | > 100 | > 100 | – | – | – | – | – | – | – | – | – | – |
| COC(=O)c1nc(N)[nH]c(=O)c1CCCCCc1c(C(=O)OC)nc(N)[nH]c1=O | > 50 | > 50 | > 50 | > 50 | > 50 | > 50 | > 50 | > 50 | > 50 | > 50 | – | – | – | – | – | – | – | – | – | – |
| C[C-](O)O.O/C(=C\[C-](O)c1ccccc1)c1ccccc1.O/C(=C\[C-](O)c1ccccc1)c1ccccc1.[Nd+3] (stereo not given) | 33.8 | 8.7 | 32.7 | > 100 | 16 | 42.3 | 71 | 44.5 | 36.3 | 33.5 | 14.6 | 2030 | 9.65 | 14.1 | 3730 | 15.5 | 4990 | 12.7 | 14.7 | 6.43 |
